Assay results taken from US20240252506A1 (Hoffmann-La Roche Inc., priority 2021, published 2024).
≈ marks a conversion by molar mass, not a printed value. Structures can show the parent of a compound that is named as a salt.

The compounds below were run on Escherichia coli ATCC 25922 (assay: Minimal Inhibitory Concentration (MIC) determination, broth microdilution (CLSI M07-A10)). Settings: Escherichia coli, ATCC25922, strain Escherichia coli ATCC 25922, 18-24 hours at 35±2° C., lowest concentration for complete growth inhibition (no visible growth), read-out: Escherichia coli growth inhibition MIC.
Assay type: cell-based
In short: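 MIC read visually as the lowest concentration with complete growth inhibition after 18-24 h at 35±2° C, ambient air. Method follows CLSI M07-A10 broth microdilution, two-fold compound series, inoculum standardized to 0.5 McFarland then diluted 1:200.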

MIC	SMILES
0.25 µg/mL (≈ 0.465 µM)	NCCn1nnc2cc(F)c3c(c21)CC(CN1CCC2(CC1)CN(c1cnc4c(n1)NC(=O)CO4)C(=O)O2)C3 (stereo not drawn) [Example 84, 6-[8-[[1-(2-aminoethyl)-5-fluoro-7,8-dihydro-6H-cyclopenta[e]benzotriazol-7-yl]methyl]-2-keto-1-oxa-3,8-diazaspiro[4.5]decan-3-yl]-4H-pyrazino[2,3-b][1,4]oxazin-3-one]
0.25 µg/mL (≈ 0.455 µM)	O=C1COc2ncc(N3CC4(CCN(CC5Cc6cc7nc([C@H]8CCN8)oc7c(F)c6C5)CC4)OC3=O)nc2N1 (single isomer, unassigned) [Example 108]
1 µg/mL (≈ 1.68 µM)	CNC(=O)CNCc1nc2c(F)c3c(cc2[nH]1)CC(CN1CCC2(CC1)CN(c1cnc4c(n1)NC(=O)CO4)C(=O)O2)C3 (stereo not drawn) [Example 71, 2-[[8-fluoro-6-[[2-oxo-3-(3-oxo-4H-pyrazino[2,3-b][1,4]oxazin-6-yl)-1-oxa-3,8-diazaspiro[4.5]decan-8-yl]methyl]-3,5,6,7-tetrahydrocyclopenta[f]benzimidazol-2-yl]methylamino]-N-methyl-acetamide]
0.125 µg/mL (≈ 0.233 µM)	NCCn1nnc2cc3c(c(F)c21)CC(CN1CCC2(CC1)CN(c1cnc4c(n1)NC(=O)CO4)C(=O)O2)C3 (stereo not drawn) [Example 76, 6-[8-[[1-(2-aminoethyl)-8-fluoro-6,7-dihydro-5H-cyclopenta[f]benzotriazol-6-yl]methyl]-2-oxo-1-oxa-3,8-diazaspiro[4.5]decan-3-yl]-4H-pyrazino[2,3-b][1,4]oxazin-3-one]
1 µg/mL (≈ 1.64 µM)	CN1C[C@H](O)C[C@H]1c1nc2c(F)c3c(c(F)c2[nH]1)CC(CN1CCC2(CC1)CN(c1cnc4c(n1)NC(=O)CO4)C(=O)O2)C3 [Example 58, 6-[8-[[4,8-Difluoro-2-[(2S,4R)-4-hydroxy-1-methyl-pyrrolidin-2-yl]-3,5,6,7-tetrahydrocyclopenta[f]benzimidazol-6-yl]methyl]-2-oxo-1-oxa-3,8-diazaspiro[4.5]decan-3-yl]-4H-pyrazino[2,3-b][1,4]oxazin-3-one]
0.25 µg/mL (≈ 0.442 µM)	CN(C)CCc1nc2cc3c(c(F)c2o1)CC(CN1CCC2(CC1)CN(c1cnc4c(n1)NC(=O)CO4)C(=O)O2)C3 (stereo not drawn) [Example 62, 6-[8-[[2-[2-(Dimethylamino)ethyl]-8-fluoro-6,7-dihydro-5H-cyclopenta[f][1,3]benzoxazol-6-yl]methyl]-2-oxo-1-oxa-3,8-diazaspiro[4.5]decan-3-yl]-4H-pyrazino[2,3-b][1,4]oxazin-3-one]
0.25 µg/mL (≈ 0.383 µM)	O=C1COc2ncc(N3CC4(CCN(CC5Cc6c(c(F)c7nn(CCNC(=O)[C@H]8CCCN8)nc7c6F)C5)CC4)OC3=O)nc2N1 [Example 158, (2R)—N-[2-[4,8-Difluoro-6-[[2-oxo-3-(3-oxo-4H-pyrazino[2,3-b][1,4]oxazin-6-yl)-1-oxa-3,8-diazaspiro[4.5]decan-8-yl]methyl]-6,7-dihydro-5H-cyclopenta[f]benzotriazol-2-yl]ethyl]pyrrolidine-2-carboxamide]
0.125 µg/mL (≈ 0.22 µM)	C[C@@H](N)c1nc2c(F)c3c(c(F)c2n1C)CC(CN1CCC2(CC1)CN(c1cnc4c(n1)NC(=O)CO4)C(=O)O2)C3 (stereo partly drawn) [Example 68, 6-[8-[[2-[(1R)-1-aminoethyl]-4,8-difluoro-1-methyl-6,7-dihydro-5H-cyclopenta[f]benzimidazol-6-yl]methyl]-2-oxo-1-oxa-3,8-diazaspiro[4.5]decan-3-yl]-4H-pyrazino[2,3-b][1,4]oxazin-3-one]
0.25 µg/mL	O=C(O)C(F)(F)F.O=C1COc2ncc(N3CC4(CCN(CC5Cc6c(c(F)c7[nH]c([C@H]8C[C@@H](O)CN8)nc7c6F)C5)CC4)OC3=O)nc2N1 [Example 50, 6-[8-[[4,8-difluoro-2-[(2R,4R)-4-hydroxypyrrolidin-2-yl]-3,5,6,7-tetrahydrocyclopenta[f]benzimidazol-6-yl]methyl]-2-oxo-1-oxa-3,8-diazaspiro[4.5]decan-3-yl]-4H-pyrazino[2,3-b][1,4]oxazin-3-one; 2,2,2-trifluoroacetic acid]
1 µg/mL (≈ 1.53 µM)	C[C@H](C(=O)NCCn1nc2c(F)c3c(c(F)c2n1)CC(CN1CCC2(CC1)CN(c1cnc4c(n1)NC(=O)CO4)C(=O)O2)C3)N(C)C [Example 150, (2R)-N[2-[4,8-difluoro-6-[[2-oxo-3-(3-oxo-4H-pyrazino[2,3-b][1,4]oxazin-6-yl)-1-oxa-3,8-diazaspiro[4.5]decan-8-yl]methyl]-6,7-dihydro-5H-cyclopenta[f]benzotriazol-2-yl]ethyl]-2-(dimethylamino)propanamide]
0.25 µg/mL (≈ 0.431 µM)	COCCNCc1nc2c(F)c3c(cc2[nH]1)CC(CN1CCC2(CC1)CN(c1cnc4c(n1)NC(=O)CO4)C(=O)O2)C3 (stereo not drawn) [Example 70, 6-[8-[[8-fluoro-2-[(2-methoxyethylamino)methyl]-3,5,6,7-tetrahydrocyclopenta[f]benzimidazol-6-yl]methyl]-2-oxo-1-oxa-3,8-diazaspiro[4.5]decan-3-yl]-4H-pyrazino[2,3-b][1,4]oxazin-3-one]
0.125 µg/mL	O=C(O)C(F)(F)F.O=C1COc2ncc(N3CC4(CCN(CC5Cc6c(c(F)c7[nH]c([C@H]8NCC[C@@H]8O)nc7c6F)C5)CC4)OC3=O)nc2N1 [Example 54, 6-[8-[[4,8-difluoro-2-[(2R,3S)-3-hydroxypyrrolidin-2-yl]-3,5,6,7-tetrahydrocyclopenta[f]benzimidazol-6-yl]methyl]-2-oxo-1-oxa-3,8-diazaspiro[4.5]decan-3-yl]-4H-pyrazino[2,3-b][1,4]oxazin-3-one; 2,2,2-trifluoroacetic acid]
4 µg/mL (≈ 6.87 µM)	O=C1COc2ncc(N3CC4(CC(NCC5Cc6c(c(F)c7[nH]c([C@H]8C[C@@H](O)CN8)nc7c6F)C5)C4)OC3=O)nc2N1 (stereo partly drawn) [Example 53, 6-[2-[[4,8-difluoro-2-[(2R,4R)-4-hydroxypyrrolidin-2-yl]-3,5,6,7-tetrahydrocyclopenta[f]benzimidazol-6-yl]methylamino]-6-oxo-5-oxa-7-azaspiro[3.4]octan-7-yl]-4H-pyrazino[2,3-b][1,4]oxazin-3-one]
2 µg/mL (≈ 3.04 µM)	O=C1COc2ncc(N3CC4(CCN(CC5Cc6c(c(F)c7[nH]c(CN8CCS(=O)(=O)CC8)nc7c6F)C5)CC4)OC3=O)nc2N1 [Example 5, 6-[8-[[2-[(1,1-dioxo-1,4-thiazinan-4-yl)methyl]-4,8-difluoro-3,5,6,7-tetrahydrocyclopenta[f]benzimidazol-6-yl]methyl]-2-oxo-1-oxa-3,8-diazaspiro[4.5]decan-3-yl]-4H-pyrazino[2,3-b][1,4]oxazin-3-one]
0.25 µg/mL (≈ 0.454 µM)	CNCCc1nc2cc3c(c(F)c2[nH]1)CC(CN1CCC2(CC1)CN(c1cnc4c(n1)NC(=O)CO4)C(=O)O2)C3 (stereo not drawn) [Example 69, 6-[8-[[8-fluoro-2-[2-(methylamino)ethyl]-1,5,6,7-tetrahydrocyclopenta[f]benzimidazol-6-yl]methyl]-2-oxo-1-oxa-3,8-diazaspiro[4.5]decan-3-yl]-4H-pyrazinio[2,3-b][1,4]oxazin-3-one]
0.25 µg/mL (≈ 0.465 µM)	NCCn1nnc2c3c(c(F)cc21)CC(CN1CCC2(CC1)CN(c1cnc4c(n1)NC(=O)CO4)C(=O)O2)C3 (stereo not drawn) [Example 85, 6-[8-[[3-(2-aminoethyl)-5-fluoro-7,8-dihydro-6H-cyclopenta[e]benzotriazol-7-yl]methyl]-2-keto-1-oxa-3,8-diazaspiro[4.5]decan-3-yl]-4H-pyrazino[2,3-b][1,4]oxazin-3-one]
0.25 µg/mL (≈ 0.44 µM)	CN(C)Cc1nc2c(F)c3c(c(F)c2[nH]1)CC(CN1CCC2(CC1)CN(c1cnc4c(n1)NC(=O)CO4)C(=O)O2)C3 [Example 3, 6-[8-[[2-[(dimethylamino)methyl]-4,8-difluoro-3,5,6,7-tetrahydrocyclopenta[f]benzimidazol-6-yl]methyl]-2-oxo-1-oxa-3,8-diazaspiro[4.5]decan-3-yl]-4H-pyrazino[2,3-b][1,4]oxazin-3-one]

Same assay, conditions: strain Escherichia coli ATCC 25922, 18-24 hours at 35±2° C., lowest concentration for complete growth inhibition (no visible growth)

Escherichia coli growth inhibition MIC	SMILES
0.125 µg/mL	CNCCn1nnc2c(F)c3c(c(F)c21)CC(CN1CCC2(CC1)CN(c1cnc4c(n1)NC(=O)CO4)C(=O)O2)C3 (single isomer, unassigned) [Example 119, 6-[2-oxo-8-[[4,8-difluoro-1-[2-(methylamino)ethyl]-6,7-dihydro-5H-cyclopenta[f]benzotriazol-6-yl]methyl]-1-oxa-3,8-diazaspiro[4.5]decan-3-yl]-4H-pyrazino[2,3-b][1,4]oxazin-3-one]
0.5 µg/mL	O=C1COc2ncc(N3CC4(CCN(CC5Cc6cc7nc([C@@H]8C[C@@H](O)CN8)oc7c(F)c6C5)CC4)OC3=O)nc2N1 (stereo partly drawn) [Example 142, 6-[8-[[8-Fluoro-2-[(2S,4R)-4-hydroxypyrrolidin-2-yl]-6,7-dihydro-5H-cyclopenta[f][1,3]benzoxazol-6-yl]methyl]-2-oxo-1-oxa-3,8-diazaspiro[4.5]decan-3-yl]-4H-pyrazino[2,3-b][1,4]oxazin-3-one]

Same assay, conditions: strain Escherichia coli ATCC 25922, 18-24 hours at 35±2° C., lowest concentration for complete growth inhibition (no visible growth), dihydrochloride

SMILES	Escherichia coli growth inhibition MIC
NCCn1nc2cc3c(c(F)c2n1)CC(CN1CCC2(CC1)CN(c1ccc4c(n1)NC(=O)CO4)C(=O)O2)C3 (single isomer, unassigned) [Example 132, 6-[2-oxo-8-[[2-(2-aminoethyl)-8-fluoro-6,7-dihydro-5H-cyclopenta[f]benzotriazol-6-yl]methyl]-1-oxa-3,8-diazaspiro[4.5]decan-3-yl]-4H-pyrido[3,2-b][1,4]oxazin-3-one dihydrochloride]	0.25 µg/mL
NCCn1nc2cc(F)c3c(c2n1)CC(CN1CCC2(CC1)CN(c1ccc4c(n1)NC(=O)CO4)C(=O)O2)C3 (single isomer, unassigned) [Example 171, 6-[2-Oxo-8-[[2-(2-aminoethyl)-5-fluoro-7,8-dihydro-6H-cyclopenta[e]benzotriazol-7-yl]methyl]-1-oxa-3,8-diazaspiro[4.5]decan-3-yl]-4H-pyrido[3,2-b][1,4]oxazin-3-one dihydrochloride]	≤0.06 µg/mL
